Key:
[1] = Inhibition of MET/VEGFR/Tie2 in human RPMI-8226 cells assessed as reduction of cell growth incubated for 72 hrs by CellTiter 96 aqueous one solution cell proliferation assay; type: cell-based; details: RPMI-8226, 72 h
[2] = Inhibition of MET/VEGFR/Tie2 in bortezomib Resistant human RPMI-8226 cells assessed as reduction of cell growth incubated for 72 hrs by CellTiter 96 aqueous one solution cell proliferation assay; type: cell-based; details: Bortezomib-resistant RPMI-8226, 72 h
[3] = Inhibition of MET/VEGFR/Tie2 in Melphalan Resistant human RPMI-8226 cells assessed as reduction of cell growth incubated for 72 hrs by CellTiter 96 aqueous one solution cell proliferation assay; type: cell-based; details: Melphalan-resistant RPMI-8226 cell
[4] = Inhibition of MET/VEGFR/Tie2 in human ANBL-6 cells assessed as reduction of cell growth incubated for 72 hrs by CellTiter 96 aqueous one solution cell proliferation assay; type: cell-based; details: ANBL-6, 72 h
[5] = Inhibition of MET/VEGFR/Tie2 in human bortezomib-resistant ANBL6 cells assessed as reduction of cell growth incubated for 72 hrs by CellTiter 96 aqueous one solution cell proliferation assay; type: cell-based
[6] = Inhibition of MET/VEGFR/Tie2 in human U-266 cells assessed as reduction of cell growth incubated for 72 hrs by CellTiter 96 aqueous one solution cell proliferation assay; type: cell-based; details: U-266, 72 h
[7] = Ratio of IC50 for inhibition of MET/VEGFR/Tie2 in human RPMI-8226 cells assessed as reduction of cell viability to IC50 for inhibition of MET/VEGFR/Tie2 in human melphalan-resistant RPMI-8226 cells assessed as reduction of cell viability; details: time 72 hrs; condition multiple myeloma
[8] = Ratio of IC50 for inhibition of MET/VEGFR/Tie2 in human RPMI-8226 cells assessed as reduction of cell viability to IC50 for inhibition of MET/VEGFR/Tie2 in human RPMI-8226/BR resistant cells assessed as reduction of cell viability; details: condition multiple myeloma
[9] = Ratio of IC50 for inhibition of MET/VEGFR/Tie2 in human ANBL6 cells assessed as reduction of cell viability to IC50 for inhibition of MET/VEGFR/Tie2 in human ANBL6/BR resistant cells assessed as reduction of cell viability; details: condition multiple myeloma
[10] = Inhibition of MEK/MAPK in human RPMI-8226 cells assessed as reduction of cell growth incubated for 72 hrs by CellTiter 96 aqueous one solution cell proliferation assay; type: cell-based; details: RPMI-8226, 72 h
[11] = Inhibition of MEK/MAPK in bortezomib Resistant human RPMI-8226 cells assessed as reduction of cell growth incubated for 72 hrs by CellTiter 96 aqueous one solution cell proliferation assay; type: cell-based; details: Bortezomib-resistant RPMI-8226, 72 h
[12] = Inhibition of MEK/MAPK in melphalan-resistant human RPMI-8226 cells assessed as reduction of cell growth incubated for 72 hrs by CellTiter 96 aqueous one solution cell proliferation assay; type: cell-based; details: Melphalan-resistant RPMI-8226 cell
[13] = Ratio of IC50 for inhibition of MEK/MAPK in human RPMI-8226 cells assessed as reduction of cell viability to IC50 for inhibition of MEK/MAPK in human melphalan-resistant RPMI-8226 cells assessed as reduction of cell viability; details: time 72 hrs; condition multiple myeloma
[14] = Inhibition of MEK/MAPK in human ANBL-6 cells assessed as reduction of cell growth incubated for 72 hrs by CellTiter 96 aqueous one solution cell proliferation assay; type: cell-based; details: ANBL-6, 72 h
[15] = Inhibition of MEK/MAPK in human bortezomib-resistant ANBL6 cells assessed as reduction of cell growth incubated for 72 hrs by CellTiter 96 aqueous one solution cell proliferation assay; type: cell-based
[16] = Inhibition of MEK/MAPK in human U-266 cells assessed as reduction of cell growth incubated for 72 hrs by CellTiter 96 aqueous one solution cell proliferation assay; type: cell-based; details: U-266, 72 h
[17] = Ratio of IC50 for inhibition of MEK/MAPK in human RPMI-8226 cells assessed as reduction of cell viability to IC50 for inhibition of MEK/MAPK in human RPMI-8226/BR resistant cells assessed as reduction of cell viability; details: condition multiple myeloma
[18] = Ratio of IC50 for inhibition of MEK/MAPK in human ANBL6 cells assessed as reduction of cell viability to IC50 for inhibition of MEK/MAPK in human ANBL6/BR resistant cells assessed as reduction of cell viability; details: condition multiple myeloma
[19] = Ratio of IC50 for inhibition of PI3K/mTOR in human RPMI-8226 cells assessed as reduction of cell viability to IC50 for inhibition of PI3K/mTOR in human melphalan-resistant RPMI-8226 cells assessed as reduction of cell viability; details: time 72 hrs; condition multiple myeloma
[20] = Ratio of IC50 for inhibition of PI3K/mTOR in human RPMI-8226 cells assessed as reduction of cell viability to IC50 for inhibition of PI3K/mTOR in human RPMI-8226/BR resistant cells assessed as reduction of cell viability; details: condition multiple myeloma
[21] = Ratio of IC50 for inhibition of PI3K/mTOR in human ANBL6 cells assessed as reduction of cell viability to IC50 for inhibition of PI3K/mTOR in human ANBL6/BR resistant cells assessed as reduction of cell viability; details: condition multiple myeloma
[22] = cells; details: Homo sapiens, RPMI-8226, 72 h
[23] = cells; details: Homo sapiens, Bortezomib-resistant RPMI-8226, 72 h
[24] = cells; details: Homo sapiens, Melphalan-resistant RPMI-8226 cell, 72 h
[25] = cells; details: Homo sapiens, ANBL-6, 72 h
[26] = cells; details: Homo sapiens, Bortezomib-resistant ANBL6 cell, 72 h
[27] = cells; details: Homo sapiens, U-266, 72 h
[28] = Ratio of IC50 for inhibition of BCR-ABL/KIT/LCK/EPHA/DDR in human RPMI-8226 cells assessed as reduction of cell viability to IC50 for inhibition of BCR-ABL/KIT/LCK/EPHA/DDR in human melphalan-resistant RPMI-8226 cells assessed as reduction of cell viability; details: time 72 hrs; condition multiple myeloma
[29] = Ratio of IC50 for inhibition of BCR-ABL/KIT/LCK/EPHA/DDR in human RPMI-8226 cells assessed as reduction of cell viability to IC50 for inhibition of BCR-ABL/KIT/LCK/EPHA/DDR in human RPMI-8226/BR resistant cells assessed as reduction of cell viability; details: condition multiple myeloma
[30] = Ratio of IC50 for inhibition of BCR-ABL/KIT/LCK/EPHA/DDR in human ANBL6 cells assessed as reduction of cell viability to IC50 for inhibition of BCR-ABL/KIT/LCK/EPHA/DDR in human ANBL6/BR resistant cells assessed as reduction of cell viability; details: condition multiple myeloma
[31] = cells; details: Homo sapiens, RPMI-8226, 72 h; remark: listed apart in the source
[32] = cells; details: Homo sapiens, Bortezomib-resistant RPMI-8226, 72 h; remark: listed apart in the source
[33] = cells; details: Homo sapiens, Melphalan-resistant RPMI-8226 cell, 72 h; remark: listed apart in the source
[34] = cells; details: Homo sapiens, ANBL-6, 72 h; remark: listed apart in the source
[35] = cells; details: Homo sapiens, Bortezomib-resistant ANBL6 cell, 72 h; remark: listed apart in the source
[36] = cells; details: Homo sapiens, U-266, 72 h; remark: listed apart in the source

Question: Which results are given for Cn1cnc(-c2cc3nccc(Oc4ccc(NC(=S)NC(=O)Cc5ccccc5)cc4F)c3s2)c1?
Answer: IC50 [1]: 8.91 µM; IC50 [2]: 6.46 µM; IC50 [3]: 10 µM; IC50 [4]: 10 µM; IC50 [5]: 9.33 µM; IC50 [6]: 10 µM; Ratio IC50 [7]: 0.9; Ratio IC50 [8]: 1.55; Ratio IC50 [9]: 1.07

Question: Which IC50 [10] does the source give for O=C(NOCC1CC1)c1ccc(F)c(F)c1Nc1ccc(I)cc1Cl [CI-1040] here?
Answer: The IC50 was 2.04 µM.

Question: What about the IC50 [11] of the same compound?
Answer: The IC50 was 7.59 µM.

Question: What about the IC50 [12] of the same compound?
Answer: The IC50 was 4.9 µM.

Question: And the “Ratio IC50” value [13]?
Answer: The value was 0.6.

Question: What about the IC50 [14] of the same compound?
Answer: The IC50 was 8.13 µM.

Question: What about the IC50 [15] of the same compound?
Answer: Its IC50 is 10 µM.

Question: What about the IC50 [16] of the same compound?
Answer: Its IC50 is 5.13 µM.

Question: And the “Ratio IC50” value [17]?
Answer: The value was 0.27.

Question: And the “Ratio IC50” value [18]?
Answer: The value was 0.81.

Question: Which “Ratio IC50” value [19] does the source give for Cn1c(=O)n(-c2ccc(C(C)(C)C#N)cc2)c2c3cc(-c4cnc5ccccc5c4)ccc3ncc21 [DACTOLISIB] here?
Answer: The value was 0.4.

Question: What about the “Ratio IC50” value [20] of the same compound?
Answer: The value was 0.45.

Question: And the “Ratio IC50” value [21]?
Answer: The value was 1.68.

Question: And the IC50 [22]?
Answer: Its IC50 is 0.0172 µM.

Question: And the IC50 [23]?
Answer: Its IC50 is 0.0382 µM.

Question: And the IC50 [24]?
Answer: The IC50 was 0.0922 µM.

Question: And the IC50 [25]?
Answer: Its IC50 is 0.0823 µM.

Question: And the IC50 [26]?
Answer: The IC50 was 0.0489 µM.

Question: And the IC50 [27]?
Answer: The IC50 was 0.056 µM.

Question: What does the source list for Cc1cn(-c2cc(NC(=O)c3ccc(C)c(Nc4nccc(-c5cccnc5)n4)c3)cc(C(F)(F)F)c2)cn1 [NILOTINIB]?
Answer: Ratio IC50 [28]: 1; Ratio IC50 [29]: 1; Ratio IC50 [30]: 1; IC50 [31]: 9.83 µM; IC50 [32]: 10 µM; IC50 [33]: 10 µM; IC50 [34]: 10 µM; IC50 [35]: 10 µM; IC50 [36]: 10 µM

Source: ChEMBL document CHEMBL5715952 (Oncotarget, 2015)
